One assay has as its system Lin− Sca1+ c-kit+ cells. The experiment in a line: Apoptosis assay, annexin V/7-AAD flow cytometry of irradiated Lin- cells, HSC gate. Format: cell-based, mouse. The conditions noted are these: for IR-induced apoptosis: 4 Gy. On the procedure:
(§1) Isolation of lineage negative hematopoietic (Lin) cells: BM mononuclear cells were incubated with biotin-conjugated rat antibodies specific for murine CD5, Mac-1, CD45R/B220, Ter-119 and Gr-1. The labeled mature lymphoid and myeloid cells were removed twice after they were incubated with goat anti-rat IgG paramagnetic beads (Dynal Inc, Lake Success, N.Y.) at a bead:cell ratio of approximately 4:1 and exposed to a magnetic field. The isolated Lin- cells were washed twice with 2% FCS/HBSS and resuspended in complete medium (RPMI1640 medium with 10%FCS, 200 mM L-glutamine and 100 U/ml penicillin and streptomycin) at 1×10^6/ml.
(§2) Ionizing radiation (IR). Aliquots of 2 ml of Lin- cells (1×10^6/ml in complete medium) were placed into a cell culture tube and exposed to 4 Gy IR on a rotating platform in a Mark IV^137Cesium gamma-irradiator (JL Shepherd, Glendale, Calif.) at a dose rate of 1.21 Gy/min.
(§3) Apoptosis assays. Lin^− cells (1×10^6/ml in complete medium) were exposed to 4 Gy IR or non-irradiated (Control). They were incubated in wells of a 24-well plate at 37° C., 5% CO2 and 100% humidity for 6 or 18 h. For z-VAD treatment studies, the cells were pre-incubated with vehicle (0.2% DMSO) or 100 μM z-VAD for 1 h prior to IR exposure, or they were treated with z-VAD immediately before or 30 min, 1 h, 2 h or 4 h after IR exposure. After 6 or 18 h incubation, 0.5 ml cells ([…]) were washed once with 1 ml 0.1% BSA/PBS. The cells were centrifuged for 5 min, 350× g at 4° C. Next, the cells were incubated with anti-CD16/32 at 4° C. for 15 min to block the Fcγ receptors and then stained with Sca-1-PE and c-kit-APC antibodies for 20 min at 4° C. in the dark. The cells were washed twice with 1 ml 0.1% BSA/PBS, centrifuged for 5 min, 350× g at RT. Next, 100 μl 1× binding buffer (10 mM HEPES, pH 7.4, 140 mM NaCl, and 2.5 mM CaCl2) was added to the pellet along with 3 μl Annexin V-FITC (Pharmingen, San Diego, Calif.) and 5 μl 7-AAD (10 μg/ml, from Molecular Probes, Eugene, Oreg.). The cell suspension was gently mixed and incubated for 15 min at room temperature. The cells were diluted in 400 μl 1× binding buffer immediately prior to subjection of FACS analysis. In all experiments, PE and APC isotype controls and FITC and 7-AAD positive controls were included as appropriate. Two or four-color flow cytometric analyses were performed using a FACS Caliber (Becton Dickinson, San Jose, Calif.).
(Flow cytometry measures light scatter and fluorescence of single cells or particles in a stream.)

A further assay has as its system Lin− Sca1− c-kit+ cells. The experiment in a line: Apoptosis assay, annexin V/7-AAD flow cytometry of irradiated Lin- cells, progenitor gate. Format: cell-based, mouse. The method, then: as §1, §2, §3
The next assay concerns mouse BM cells. Briefly: Cobblestone area-forming cell (CAFC) assay of irradiated BM cells. Format: cell-based. The conditions noted are these: 100 μM z-VAD 1 h prior to 4 Gy IR. On the procedure: FIGS. 8A-B. z-VAD partially protects HSC from IR-induced suppression of hematopoietic function. BM cells were pre-incubated with vehicle or 100 μM z-VAD for 1 h and then were exposed to 4 Gy IR. BM cells without IR were used as control. Six hours after the IR, the cells were overlaid on FBMD-1 stromal cell layers. The frequency of CAFC was determined on 7, 14, 21, 28 and 35 days after IR. FIG. 8A—Frequency of CAFC. FIG. 8B—Survival fraction of CAFC as compared to that of control cells. The data presented are mean +/− SEM (n=3 individual mice/groups). Vehicle/IR vs z-VAD/IR, p<0.01 by ANOVA.
z-VAD protects HSC from IR-induced suppression of hematopoietic function. To determine if inhibition of IR-induced HSC apoptosis by z-VAD preserves their hematopoietic function, mouse BM cells were pre-incubated with vehicle (0.2% DMSO) or z-VAD (100 μM) one hour prior to exposure to IR (4 Gy). The hematopoietic function of these cells were analyzed by cobblestone area-forming cell (CAFC) assay (Ploemacher et al., 1989). This in vitro assay provides an estimate of the hematopoietic function of a spectrum of CAFC day-types that correspond to CFU-granulocyte macrophage (CFU-GM) (CAFC day 7), CFU-spleen (CFU-S) day-12 (CAFC day 14), and the primitive HSC with long-term repopulating ability (CAFC day 28-35) (Ploemacher et al., 1989).

For another assay, the system named is Male C57BL/6 mice. The experiment in a line: Protection of mice from IR-induced lethality. Format: in vivo, mouse. The method, then: FIG. 9. z-VAD protects mice from IR-induced lethality. Male C57BL/6 mice were given two i.p. injections of vehicle (0.25 ml PBS with 0.2% DMSO) or z-VAD (6 mg/kg) at one hour prior to and 5 h after exposure to a lethal dose of IR (10.5 Gy). The survival of these mice was monitored daily up to 24 days after exposure to IR. n=6 mice/group).
z-VAD protects mice from IR-induced lethality. Finally, the inventors examined if z-VAD acts as a radioprotectant to protect mice from IR-induced death. Male C57BL/6 mice were given two i.p. injections of vehicle (0.25 ml PBS with 0.2% DMSO) or z-VAD (6 mg/kg) at one hour prior to and 5 h after exposure to a lethal dose of IR (10.5 Gy). […] In contrast, 50% mice receiving z-VAD injections remain alive up to today (24 days) after IR.

Setting [1] is: 100 μM z-VAD 1 h prior to 4 Gy IR.
Setting [2] is: 100 μM z-VAD 1 h prior to 4 Gy IR, 6 and 18 h post IR.

Data on 1 compound can be found in patent US20070184021A1, “Use of caspase inhibitors as a therapeutic agent against radiation-induced injury” (priority 2002, published 2007).

Residues, ends and D or L forms follow the SMILES beside them. *: point of attachment. Cbz = O=C(OCc1ccccc1)*; CH2F = FC*

Regarding `COC(=O)C[C@H](NC(=O)[C@H](C)NC(=O)[C@@H](NC(=O)OCc1ccccc1)C(C)C)C(=O)CF` [z-VAD, Z-Val-Ala-Asp (OCH3)-Fluoromethylketone, methyl ester] (Cbz-Val-Ala-Asp(OMe)-CH2F), the “necrotic cell death (7-AAD+ cells)” value in the assay on Lin− Sca1+ c-kit+ cells (setting [1]) and in the assay on Lin− Sca1− c-kit+ cells (setting [1]) was “did not lead to an increase” each time. The “IR-induced reduction of cell numbers” value in the assay with Lin− Sca1+ c-kit+ cells (setting [2]) is recorded as “completely prevented”; with Lin− Sca1− c-kit+ cells (setting [2]) it was “only partially protected”. The “IR-induced apoptosis (annexin V+ and annexin V+/7-AAD+ cells)” value in the assay with Lin− Sca1+ c-kit+ cells (100 μM z-VAD 1 h prior to 4 Gy IR, 6 h after IR) is “significantly inhibited”; with Lin− Sca1+ c-kit+ cells (100 μM z-VAD 1 h prior to 4 Gy IR, 18 h after IR), “completely protected”; with Lin− Sca1− c-kit+ cells (100 μM z-VAD 1 h prior to 4 Gy IR, 6 and 18 h after IR), “attenuated”. Moreover, the results for the IR-induced apoptosis entry in the assay on Lin− Sca1+ c-kit+ cells (100 μM z-VAD given at 4 h post IR) and with Lin− Sca1+ c-kit+ cells (100 μM z-VAD given prior to IR (-1 h) or up to 2 h post IR) were “only partially inhibited” and “abrogated”, respectively. For the same compound, the “numbers of cells as percentage of un-irradiated control cells” value in the assay on Lin− Sca1− c-kit+ cells (100 μM z-VAD 1 h prior to 4 Gy IR, 18 h post IR) is “about 29%”. Moreover, the “IR-induced apoptosis, compared with the effect in Lin− Sca1+ c-kit+ cells” value with Lin− Sca1− c-kit+ cells (100 μM z-VAD given -1 h to 4 h relative to 4 Gy IR) is recorded as “to a less extent”. Besides, the “CAFC frequency and survival fraction vs vehicle-treated cells exposed to IR” value in the assay with mouse BM cells (p<0.01) is “significantly increased”. Further, the “survival fraction of CAFC relative to vehicle-treated cells” value in the assay on mouse BM cells (CAFC day 7-35) is recorded as “about 2 fold”. Also, the “survival fraction of CAFC” value is recorded as 0.211 in the assay with mouse BM cells (CAFC day 7); 0.058 in the assay with mouse BM cells (CAFC day 14); 0.148 with mouse BM cells (CAFC day 21); 0.453 with mouse BM cells (last value of the list, CAFC day 28 or 35 (four values printed for five days)). Also, the “mice alive after IR” value with Male C57BL/6 mice (z-VAD 6 mg/kg i.p. 1 h prior to and 5 h after 10.5 Gy IR, 24 days after IR, n=6) came out at 50%. Moreover, the “protection from IR-induced death” value in the assay on Male C57BL/6 mice (z-VAD 6 mg/kg i.p. twice, 1 h prior to and 5 h after 10.5 Gy IR) is “protected half”.
